Test results published in patent US7052834B1, “Tumor suppressor protein involved in death signaling, and diagnostics, therapeutics, and screening based on this protein” (St. Jude Children's Research Hospital, priority 1998, dated 2006).
Peptide text beside a SMILES is read from it. * marks the point of attachment. Cbz = O=C(OCc1ccccc1)*; CH2F = FC*

Key:
NB10 [1] = assay: Fas mAb-induced apoptosis in cells with programmed caspase-8 expression; type: cell-based, human; conditions: zVAD-fmk added prior to programmed expression of caspase-8
Procedure: (§1) FIGS. 8A, 8B, 8C, 8D, and 8E. Effects of retrovirus expression of caspase-8 in three different NB cell lines that are caspase-8 nulls. […] The caspase-8(DN) product migrates at a higher molecular weight due to an HA-tag attached to its carboxyl-terminus. B, C:Morphology of NB7/Casp8 cells 5 hours after treatment with TNFα and cycloheximide. Membrane blebbing (Nomarski view, B) and condensed chromatin (visualized by DAPI staining, C), characteristics of apoptotic cells, are clearly visible. D:Percentage of cells that are positive for cell surface annexin-V staining, another hallmark of apoptotic cells. The various cell lines and their treatment regimens are shown at the bottom. E: Apoptotic induction by Fas mAb in proliferating NB8 and NB10 cells stably expressing caspase-8 at a low level. Induction measured as percentage of cells that are TUNEL-positive. The various cell lines and their treatment regimens are shown at the bottom.
(§2) Apoptotic assays. Cells were collected for annexin V-FITC staining and FACS analysis after the culture media containing zVAD-fmk was removed and replaced with normal culture medium for 6 hours in NB8 and NB 10. […] Viable cells were determined by light and immunofluorescent microscopy after removal of the zVAD-fmk containing culture medium and incubation at 37° C. for 0.5, 1, 2, 4 and 6 hrs for the pMSCV-Casp 8(wt) and DN transduced NB8 and NB10 cells. […]

NB8 [2] = assay: as above; type: cell-based, human; conditions: zVAD-fmk added prior to programmed expression of caspase-8
Procedure: as §1, §2

TNFR p55 (human) = TNFR p55 (human) (UniProt P19438); assay: cell-based or functional assay
neuroblastoma cell lines = assay: Apoptosis after re-establishing caspase-8 expression; type: cell-based, human; conditions: cell lines not expressing caspase-8
Source text: The present invention is based, in part, on the surprising discovery that CASP8 is functionally inactivated in greater than 90% of all MYCN amplified neuroblastoma cell lines analyzed. Neuroblastoma is a pediatric solid tumor, and those cases with MYCN amplification have a particularly poor prognosis. […] This discovery is significant in oncology, because cells in which caspase-8 is not expressed are not capable of undergoing apoptosis mediated by death receptors such as Fas and DR3.

NB14 = assay: 5-aza-cytidine treatment: caspase-8 western blot and apoptosis; type: cell-based, human; conditions: after 10–50 μM for 2–3 days
Source text: (§3) Caspase-8 western blot analysis of cell lysates from the NB8, NB10, and NB14 cell lines with (+) or without (−) 5-aza-2′-deoxycytidine. […] We therefore examined DNA methylation of CASP8 regulatory sequences as an alternative mechanism through which expression could be silenced, as documented for several tumor suppressor genes, such as INK4a, CDKN1, CDKN2, PTEN, MLH1, von Hippel-Lindau, and E-cadherin (Baylin et al., Adv. Cancer Res., 1998, 72:141–196; Belinsky et al., Proc. Natl. Acad. Sci. USA, 1998, 95:11891; Whang et al., Proc.Natl.Acad.Sci.USA,1998, 95:5246–5250; Merlo et al., Nature Medicine, 1995, 1:686–692).
(§4) The role of methylation of CASP8 regulatory sequences was tested by treating NB cells with 5-aza-cytidine, a compound that promotes the demethylation of CpG dinucleotides (Merlo et al., Nature Medicine, 1995, 1:686–692). When cells were treated with 10–50 μM 5-aza-cytidine for 2–3 days, caspase-8 expression was activated in the NB8 and NB11 cell lines, but not NB14 (FIG. 6A).

NB10 [3] = assay: as above; type: cell-based, human
Source text: as §3, §4

NB8 [4] = assay: as above; type: cell-based, human
Source text: as §3, §4

NB11 = assay: 5-aza-cytidine treatment: caspase-8 western blot; type: cell-based, human; conditions: 10–50 μM for 2–3 days
Source text: as §3, §4

NB7 = assay: Doxorubicin-induced apoptosis (TUNEL); type: cell-based, human
Procedure: (§5) In order to determine whether exogenous expression of caspase-8 resensitized caspase-8 null NB cells to chemotherapeutic agents, NB7 cells and NB7 cells transduced with pMSCV-Casp8(wt) were treated with doxorubicin. Doxorubicin-induced neuroblastoma apoptosis has previously been linked to the Fas receptor pathway (Fulda et al., Cancer Res., 1997, 57:3823–3829). The NB7 cell line was chosen since it lacks a functional CASP8 gene (FIGS. 4 and 5, Table 2).

NB8 [5] = assay: Doxorubicin-induced apoptosis (TUNEL); type: cell-based, human; conditions: 0.1 mM doxorubicin for 48 hrs
NB5 = assay: Doxorubicin-induced apoptosis (TUNEL); type: cell-based, human; conditions: 0.1 mM doxorubicin for 48 hrs, percentage of cell death by TUNEL
NB3 = assay: Doxorubicin-induced apoptosis (TUNEL); type: cell-based, human; conditions: 0.1 mM doxorubicin for 48 hrs, percentage of cell death by TUNEL
NB cell lines = assay: Sensitivity of NB cell lines to doxorubicin-induced apoptosis; type: cell-based, human
Procedure: as §5

Sequence of TNFR p55 (human) (P19438 30-455): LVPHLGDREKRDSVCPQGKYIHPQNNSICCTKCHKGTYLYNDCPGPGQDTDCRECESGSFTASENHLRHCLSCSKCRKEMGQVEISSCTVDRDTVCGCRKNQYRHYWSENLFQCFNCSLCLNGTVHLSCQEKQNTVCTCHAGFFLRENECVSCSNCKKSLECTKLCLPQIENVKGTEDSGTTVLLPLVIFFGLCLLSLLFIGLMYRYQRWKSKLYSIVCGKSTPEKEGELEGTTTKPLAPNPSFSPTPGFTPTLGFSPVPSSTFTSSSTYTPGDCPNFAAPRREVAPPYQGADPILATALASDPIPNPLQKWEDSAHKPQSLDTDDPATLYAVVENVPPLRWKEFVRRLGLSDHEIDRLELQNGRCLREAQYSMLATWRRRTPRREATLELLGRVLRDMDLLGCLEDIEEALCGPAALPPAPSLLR

COC(=O)C[C@H](NC(=O)[C@H](C)NC(=O)[C@@H](NC(=O)OCc1ccccc1)C(C)C)C(=O)CF [zVAD-fmk] (Cbz-Val-Ala-Asp(OMe)-CH2F)
apoptosis induced by agonistic Fas mAb (NB10 [1]): blocked
apoptosis induced by agonistic Fas mAb (NB8 [2]): blocked

TNF-α (ligand)
apoptosis of NB7 cells lacking caspase-8, five hours after TNF-α/CHX treatment (annexin-V staining) (TNFR p55 (human)): 5%
apoptosis of NB7 cells transduced with pMSCV-Casp8(wt), five hours after TNF-α/CHX treatment (DAPI, annexin-V staining) (TNFR p55 (human)): 40%

Nc1ncn([C@@H]2O[C@H](CO)[C@@H](O)[C@H]2O)c(=O)n1 [5-aza-cytidine]
apoptosis when caspase-8 expression is re-established (neuroblastoma cell lines): undergo apoptosis
spontaneous apoptosis (NB14): not
caspase-8 expression (NB10 [3]; FIG. 6A): results in the expression of caspase-8
spontaneous apoptosis (NB10 [3]; after 10–50 μM for 2–3 days): underwent spontaneous apoptosis
caspase-8 expression (NB8 [4]; 10–50 μM for 2–3 days): activated
spontaneous apoptosis (NB8 [4]; after 10–50 μM for 2–3 days): underwent spontaneous apoptosis
caspase-8 expression (NB11): activated

COc1cccc2c1C(=O)c1c(O)c3c(c(O)c1C2=O)C[C@@](O)(C(=O)CO)C[C@@H]3O[C@H]1C[C@H](N)[C@H](O)[C@H](C)O1 [Doxorubicin, doxorubicin]
Doxorubicin-induced Apoptosis (+caspase-8) (NB7; NB7 +caspase-8, 0.1 mM doxorubicin for 48 hrs, TUNEL): 42 +/− 2.6%
Doxorubicin-induced Apoptosis (NB7; NB7, 0.1 mM doxorubicin for 48 hrs, percentage of cell death by TUNEL): 24 +/− 3%
increase in the level of cell death (NB7; NB7 cells expressing functional caspase-8 vs parental/pMSCV/pMSCV-Casp8(DN), low levels of doxorubicin): 70–100%
apoptosis after exposure to low levels of doxorubicin (NB7; parental NB7 cells and those transduced with pMSCV or pMSCV-Casp8(DN)): very limited apoptosis
Doxorubicin-induced Apoptosis (+caspase-8) (NB8 [5]; NB8 +caspase-8, TUNEL): 38 +/− 2%
Doxorubicin-induced Apoptosis (NB8 [5]; NB8, percentage of cell death by TUNEL): 18 +/− 2.6%
Doxorubicin-induced Apoptosis (NB5): 54 +/− 4.6%
Doxorubicin-induced Apoptosis (NB3): 52 +/− 4%
sensitization to doxorubicin-induced apoptosis (NB cell lines; NB cell lines (e.g., NB16 and NB21) expressing caspase-8): more sensitized
sensitization to doxorubicin-induced apoptosis (NB cell lines; cell lines that do not express caspase-8, regardless of Fas/CD95 status): not sensitized
